Reference: US20230081720A1, “MCL-1 INHIBITOR ANTIBODY-DRUG CONJUGATES AND METHODS OF USE” (NOVARTIS AG, priority 2019, published 2023)
pIC50: −log10 of the molar value. Where two headings read alike, the source gives them in different places. Marks after values point to notes of the source that are not given here.

Legend:
[1] = test system: Monomac1 cells; assay: Viability of Monomac1 AML cell line, CellTiterGlo 72 h; format: cell-based; details: read-out: IC50 M (CTG 72 h) Monomac1
Protocol: Monomac1 cells were cultivated in RPMI supplemented with 10% heat inactivated fetal bovine serum, penicillin (100 IU/ml), streptomycin ([…]) and L-glutamine (2 mM). Cell lines were cultured at 37° C. in a humidified atmosphere containing 5% CO2. Cells were seeded in 96 microwell plates and exposed to the payloads or ADCs for 72 h (serially diluted; 9 concentrations each, triplicates). Effects of payloads or ADCs on cell viability were assessed after 3 days of incubation at 37° C./5% CO2 by quantification of cellular ATP levels using CellTiterGlo at 75 μL reagent/well. All the conditions were tested in triplicates. Luminescence was quantified on a multipurpose plate reader. IC50s were calculated using standard four-parametric curve fitting. […] Each experiment was performed at least twice, with results being reproducible.

[2] = test system: EOL1 human acute myeloid (eosinophilic) leukemia xenograft model; assay: EOL1 xenograft, CD74-ADCs Fc silent with different linker payloads (Example 15); format: in vivo, mice; details: for T/C (%): day 10; for ΔTumor volume (mm^3): day 10, mean
Protocol: To optimize the linker payload, efficacy of 6 CD74-ADCs with different linker payloads (L5-P1, L30-P1, L31-P1, L32-P1, L33-P1 and L34-P1) was evaluated in the EOL1 model in vivo.
EOL1 luciferase transfected cells were cultured at 37° C. in an atmosphere of 5% CO2 in air in RPM11640 (BioConcept Ltd. Amimed) supplemented with 10% FCS (BioConcept Ltd. Amimed, #2-01 F30-1), 2 mM L-glutamine (BioConcept Ltd. Amimed, #5-10K00-H) and 1 mM sodium pyruvate (BioConcept Ltd. Amimed, #5-60F00-H), 10 mM HEPES (Gibco #11560496). To establish EOL1 xenografts cells were harvested and re-suspended in HBSS (Gibco, #14175) before injecting 100 μL containing 5×10^6 cells subcutaneously in the flanks of female SCID beige mice (Charles River, Germany). Tumor growth was monitored regularly post cell inoculation and animals were randomized into treatment groups (n=6) with a mean tumor volume of about 130 mm^3. The ADCs were administered intravenously (iv) once at the start of treatment at 2.5 mg/kg or at 3.3 mg/kg in combination with venetoclax which was administered orally (po) daily (qd) at 50 mg/kg. Doses were adjusted to individual mouse body weights. The iv dose volume was 10 ml/kg and each ADC was dissolved in 0.9% (w/v) NaCl in water. Tumor volume data on day 10 post treatment were analyzed statistically using one way ANOVA post hoc Tukey's multiple comparisons test (Indigo Software). Results are presented as mean±SEM. As a measure of efficacy the % T/C value is calculated on day 10 according to:
(Δtumor volume^treated/Δtumor volume^control)*100
Tumor regression was calculated according to:
−(Δtumor volume^treated/tumor volume^treated at start)*100
Where Δtumor volumes represent the mean tumor volume on the evaluation day minus the mean tumor volume at the start of the experiment.

[3] = test system: EOL-1; format: cell-based
Protocol: (§1) The CD74 MCL-1 antibody drug conjugates were tested against three endogenous cancer cell lines. MONO-MAC-1 (DSMZ No. ACC-252 cultured in RPMI-1640+10% FBS+1× non-essential amino acids+1 mM sodium pyruvate), NOMO-1 (DSMZ No. ACC-542 cultured in RPMI-1640+10% FBS) and EOL-1 (DSMZ No. ACC-386 cultured in RPMI-1640+10% FBS)
(§2) The ability of the CD74 MCL-1 antibody drug conjugates to inhibit cell proliferation in combination with BCL-2 inhibitor and survival was assessed using the Promega CellTiter-Glo® proliferation assay. Cell lines were cultured in media that is optimal for their growth at 5% CO2, 37° C. in a tissue culture incubator. Prior to seeding for the proliferation assay, the cells were split at least 2 days before the assay to ensure optimal growth density. On the day of seeding, suspension cells were harvested. Cell viability and cell density were determined using a cell counter (Vi-Cell XR Cell Viability Analyzer, Beckman Coulter). […] Cells were seeded at a density of 1,000 cells per well in 45 μL of standard growth media. Plates were incubated at 5% CO2, 37° C. overnight in a tissue culture incubator. The next day, free MCL-1 payload (P1), targeting MCL-1 ADCs and non-targeting isotype ADCs were prepared at 10× in standard growth media. The prepared drug treatments were then added to the cells resulting in final concentrations of 0.0005-300 nM and a final volume of 50 μL per well. Each drug concentration was tested in quadruplets. Three conditions were evaluated for each compound. The compounds were evaluated as single agents and in combination with Venetoclax and in combination with Compound A1. The Venetoclax and Compound A1 were dosed at either 5 nM or 50 nM final concentration. Plates were incubated at 5% CO2, 37° C. for 5 days in a tissue culture incubator, after which cell viability was assessed through the addition of 25 μL of CellTiter Glo® (Promega, cat#G7573), a reagent which lyses cells and measures total adenosine triphosphate (ATP) content. Plates were incubated at room temperature for 10 minutes to stabilize luminescent signals prior to reading using a luminescence reader (EnVision Multilabel Plate Reader, PerkinElmer). To evaluate the effect of the drug treatments, luminescent counts from wells containing untreated cells (100% viability) were used to normalize treated samples. A variable slope model was applied to fit a nonlinear regression curve to the data in GraphPad PRISM version 7.02 software. IC50 and Amax values were extrapolated from the resultant curves.

[4] = test system: NOMO-1; format: cell-based
Protocol: as §1, §2

[5] = test system: MONO-MAC-1; format: cell-based
Protocol: as §1, §2

[6] = test system: NCI-H929 multiple myeloma cell line; assay: In vitro cytotoxicity, Microculture Tetrazolium Assay (MTT); format: cell-based; details: Homo sapiens; NCI-H929 cells, 48 hours
Protocol: Cytotoxicity studies were carried out on the NCI-H929 multiple myeloma cell line. The cells were distributed onto microplates and exposed to the test compounds for 48 hours.

[7] = target: Mcl-1 protein (Homo sapiens, UniProt Q07820); assay: Inhibition of Mcl-1 by fluorescence polarization (FP); format: binding; details: fluorescein-labelled ligand 1 nM, Mcl-1 protein 5 nM
Protocol: The relative binding potency of each compound was determined via Fluorescence Polarization (FP).
An 11-point serial dilution of each compound was prepared in DMSO and 2 PI transferred into flat bottomed, low binding, 384-well plate (final DMSO concentration 5%). 38 μl of buffer (10 mM 4-(2-hydroxyethyl)-1-piperazineethanesulfonic acid [HEPES], 150 mM NaCl, 0.05% Tween 20, pH 7.4), containing the fluorescein-labelled ligand (final concentration 1 nM) and Mcl-1 protein (final concentration 5 nM) was then added.

[8] = 2.5 mg/kg i.v. once + Venetoclax 50 mg/kg p.o. qd
[9] = 3.3 mg/kg i.v. once + Venetoclax 50 mg/kg p.o. qd
[10] = female SCID beige mice, 2.5 mg/kg i.v. once + Venetoclax 50 mg/kg p.o. qd

Mcl-1 protein, sequence (Q07820 whole entry): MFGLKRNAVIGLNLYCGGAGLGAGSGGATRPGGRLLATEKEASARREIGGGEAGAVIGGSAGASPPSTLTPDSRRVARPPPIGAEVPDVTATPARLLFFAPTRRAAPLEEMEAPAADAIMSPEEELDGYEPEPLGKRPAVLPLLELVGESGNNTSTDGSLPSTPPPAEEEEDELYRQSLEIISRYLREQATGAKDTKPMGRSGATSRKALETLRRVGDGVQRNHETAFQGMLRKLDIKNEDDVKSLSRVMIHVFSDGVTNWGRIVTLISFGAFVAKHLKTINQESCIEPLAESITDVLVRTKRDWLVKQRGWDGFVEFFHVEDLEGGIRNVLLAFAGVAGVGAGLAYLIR

With `COc1ccccc1-c1nccc(COc2ccccc2C[C@@H](Oc2ncnc3sc(-c4ccc(F)cc4)c(-c4ccc(OCCN5CC[N+](C)(Cc6ccc(NC(=O)[C@H](CCCNC(N)=O)NC(=O)[C@@H](NC(=O)CCOCCN7C(=O)CC(C)C7=O)C(C)C)cc6)CC5)c(Cl)c4C)c23)C(=O)O)n1` (stereo partly drawn) [CD74-L9-P1] the pIC50 ([1]; 72 h) was 9.32.
In the case of `COCCOCCOCCOCCOCCOCCOCCOCCOCCOCCOCCOCCOCCOCCOCCOCCn1cc(COCc2cc(NC(=O)[C@H](CCCNC(N)=O)NC(=O)[C@@H](NC(=O)CCOCCN3C(=O)CC(C)C3=O)C(C)C)ccc2C[N+]2(C)CCN(CCOc3ccc(-c4c(-c5ccc(F)cc5)sc5ncnc(O[C@H](Cc6ccccc6OCc6ccnc(-c7ccccc7OC)n6)C(=O)O)c45)c(C)c3Cl)CC2)nn1` (stereo partly drawn) [CD74-L34-P1], the “T/C (%)” value [2, 8] was 40* %, the “T/C (%)” value [2, 9] was 17*^$ % and the “ΔTumor volume (mm^3)” value [2, 9] was 170 mm^3. The “ΔTumor volume (mm^3)” value [2, 10] was 401 mm^3.
In the case of `COCCOCCOCCOCCOCCOCCOCCOCCOCCOCCOCCOCCC(=O)N(C)Cc1cc(NC(=O)[C@H](CCCNC(N)=O)NC(=O)[C@@H](NC(=O)CCOCCN2C(=O)CC(C)C2=O)C(C)C)ccc1C[N+]1(C)CCN(CCOc2ccc(-c3c(-c4ccc(F)cc4)sc4ncnc(O[C@H](Cc5ccccc5OCc5ccnc(-c6ccccc6OC)n5)C(=O)O)c34)c(C)c2Cl)CC1` (stereo partly drawn) [CD74-L32-P1], the “T/C (%)” value [2, 8] was 4*^$ % and the “ΔTumor volume (mm^3)” value [2, 10] was 38 mm^3.
Molecule `Cc1c(Cl)c2c(Cl)c(C)c1-c1c(-c3ccc(F)cc3)sc3ncnc(c13)O[C@@H](C(=O)O)Cc1cc(ccc1OCc1ccnc([C@H]3CC[C@H](OC[C@@H]4COCCO4)CC3)n1)OC[C@@H](CN1CCN(C)CC1)O2` [P17, (11R,20R)-23,26-dichloro-14-[[2-[4-[[(2S)-1,4-dioxan-2-yl]methoxy]cyclohexyl]pyrimidin-4-yl]methoxy]-3-(4-fluorophenyl)-24,25-dimethyl-20-[(4-methylpiperazin-1-yl)methyl]-10,18,21-trioxa-4-thia-6,8-diazapentacyclo[20.2.2.12,5.113,17.09,28]octacosa-1(24),2,5(28),6,8,13,15,17(27),22,25-decaene-11-carboxylic Acid] has a pIC50 ([1]; Mono-Mac-1, 72 h) of 9.21.
For `COc1ccccc1-c1nccc(COc2ccc3cc2C[C@H](C(=O)O)Oc2ncnc4sc(-c5ccc(F)cc5)c(c24)-c2c(C)c(Cl)c(c(Cl)c2C)O[C@H](CN2CCN(C)CC2)CO3)n1` [P15, (11R,20R)-23,26-dichloro-3-(4-fluorophenyl)-14-[[2-(2-methoxyphenyl)pyrimidin-4-yl]methoxy]-24,25-dimethyl-20-[(4-methylpiperazin-1-yl)methyl]-10,18,21-trioxa-4-thia-6,8-diazapentacyclo[20.2.2.12,5.113,17.09,28]octacosa-1(25),2,5(28),6,8,13,15,17(27),22(26),23-decaene-11-carboxylic acid], the pIC50 ([1]; Mono-Mac-1, 72 h) was 9.41.
In the case of `COCCOCCOCCOCCOCCOCCOCCOCCOCCOCCOCCOCCOCCOCCOCCOCCOCCOCCOCCOCCOCCOCCOCCOCCn1cc(COCc2cc(NC(=O)[C@H](CCCNC(N)=O)NC(=O)[C@@H](NC(=O)CCOCCN3C(=O)CC(C)C3=O)C(C)C)ccc2C[N+]2(C)CCN(CCOc3ccc(-c4c(-c5ccc(F)cc5)sc5ncnc(O[C@H](Cc6ccccc6OCc6ccnc(-c7ccccc7OC)n6)C(=O)O)c45)c(C)c3Cl)CC2)nn1` (stereo partly drawn) [CD74-L5-P1], the IC50 ([3]; + 5 nM Compound A1, 5 days) was 0.136 nM, the IC50 ([3]; + 5 nM Venetoclax, 5 days) was 0.164 nM and the “Amax (Span) EOL-1” value ([3]; single agent, 5 days) was 91.25. For the same molecule, the IC50 ([3]; single agent, 5 days) was 1.42 nM, the IC50 ([4]; + 5 nM Compound A1, 5 days) was 0.457 nM and the IC50 ([4]; + 5 nM Venetoclax, 5 days) was 1.03 nM. For the same molecule, the IC50 ([4]; + 50 nM Compound A1, 5 days) was 0.138 nM, the IC50 ([4]; + 50 nM Venetoclax, 5 days) was 0.278 nM and the “Amax (Span) NOMO-1” value ([4]; single agent, 5 days) was 74.45. It also gave an IC50 ([4]; single agent, 5 days) of 3.7 nM, an IC50 ([5]; + 5 nM Compound A1, 5 days) of 0.636 nM and an IC50 ([5]; + 5 nM Venetoclax, 5 days) of 1.31 nM. The IC50 ([5]; + 50 nM Compound A1, 5 days) was 0.156 nM, the IC50 ([5]; + 50 nM Venetoclax, 5 days) was 0.409 nM and the “Amax (Span) MONO-MAC-1” value ([5]; single agent, 5 days) was 84.9. For the same molecule, the IC50 ([5]; single agent, 5 days) was 7.95 nM, the “T/C (%)” value [2, 8] was 70% and the “ΔTumor volume (mm^3)” value [2, 10] was 702 mm^3.
`Cc1c(Cl)c2c(Cl)c(C)c1-c1c(-c3ccc(F)cc3)sc3ncnc(c13)O[C@@H](C(=O)O)Cc1cc(ccc1OCc1ccnc([C@H]3CC[C@](F)(COC[C@@H]4COCCO4)CC3)n1)OC[C@@H](CN1CCN(C)CC1)O2` [P16, (11R,20R)-23,26-dichloro-14-[[2-[4-[[(2S)-1,4-dioxan-2-yl]methoxymethyl]-4-fluoro-cyclohexyl]pyrimidin-4-yl]methoxy]-3-(4-fluorophenyl)-24,25-dimethyl-20-[(4-methylpiperazin-1-yl)methyl]-10,18,21-trioxa-4-thia-6,8-diazapentacyclo[20.2.2.12,5.113,17.09,28]octacosa-1(24),2,5(28),6,8,13,15,17(27),22,25-decaene-11-carboxylic Acid] was tested, and the pIC50 ([1]; Mono-Mac-1, 72 h) was 9.55.
`COc1c(O)cccc1-c1nccc(COc2ccccc2C[C@@H](Oc2ncnc3sc(-c4ccc(F)cc4)c(-c4ccc(OCCN5CCN(C)CC5)c(Cl)c4C)c23)C(=O)O)n1` [C14, (2R)-2-{[(5Sa)-5-{3-chloro-2-methyl-4-[2-(4-methylpiperazin-1-yl)ethoxy]phenyl}-6-(4-fluorophenyl)thieno[2,3-d]pyrimidin-4-yl]oxy}-3-(2-{[2-(3-hydroxy-2-methoxyphenyl)pyrimidin-4-yl]methoxy}phenyl)propanoic Acid] gave an IC50 [6] of 2.61 nM and an IC50 [7] of 0.84 nM.
